Results on 4 compounds are retold here after patent US4898870A, “Pyrroloquinoline quinone compounds useful as an enzyme inhibitor” (Sogo Pharmaceutical Company Limited, priority 1986, dated 1990).

Common to all, as to type: biochemical
Test [1] addresses T1, rat lens aldose reductase (Rattus norvegicus, UniProt P07943).
T1 construct: A homogenate of rat lens was used; from tissue; host or cells: rat lens (crude homogenate; in later tests the 3,000 rpm supernatant)
The test is described as follows: Inhibition of rat lens aldose reductase (NADPH2 OD decrease at 340 nm). The settings on record: for inhibition at 10 µM: inhibitor 10^-5 M/reaction soln.; for inhibition at 1 µM: inhibitor 10^-6 M/reaction soln.; for IC50: rat lens homogenate, substrate dl-glyceraldehyde; for IC100: rat lens, read-out: concentration inhibiting the activity by 100%. As to the method: A homogenate of rat lens was used and the activity of aldose reductase was measured by the method of Kinoshita, et. al. (Kinoshita J. H., et al, Metabolism, 28, 462-469, (1979)).
(§1) Specifically reaction was started by adding dl-glyceraldehyde as a substrate to a reaction solution containing rat lens homogenate, Li2 SO4, NADPH2 and inhibitor, and the enzyme activity was measured by the decrease of the optical absorption of NADPH2 (optical density: OD) at 340 nm for 5 min. The solution with no addition of the substrate was used for the blank OD. The inhibiting ratio for the aldose reductase reaction by the inhibitor was determined by the following equation: [formula]
(§2) To a reaction solution containing the chick lens homogenate, Li2 SO4, NADPH2 and an inhibitor, was added dlglyceraldehyde as substrate to start the reaction, and the enzymatic activity was determined by measuring the decrease in optical density (OD) of NADPH2 at 340 nm after five minutes. A solution with no substrate added was used for the blank test. The inhibition rate against the aldose reductase reaction was calculated from the following equation: [formula]
A homogenate of rat lens was centrifuged for four minutes at 3,000 rpm under cooling, the supernatant was collected as an enzyme solution, and the inhibitory action of PQQ·H2 against aldose reductase was measured in the same way as in Test Example 4.
An enzyme solution was prepared from rat lens in the same manner as in Test Example 10, and the inhibitory action of PQQ·3Me against rat lens aldose reductase was measured in the same way as in Test Example 4.

Test [2] has as its target T2, bovine lens aldose reductase (Bos taurus, UniProt P16116).
T2 construct: A homogenate of bovine lens was centrifuged for ten minutes at 20,000 rpm under cooling; from tissue; host or cells: bovine lens (20,000 rpm supernatant of homogenate)
The test is described as follows: Inhibition of bovine lens aldose reductase. The following applies: for IC50: bovine lens enzyme; for IC100: bovine lens, read-out: concentration inhibiting the activity by 100%; for inhibition at 4 µM: inhibitor 4 × 10^-6 M/reaction soln.; for inhibition at 6 µM: inhibitor 6 × 10^-6 M/reaction soln.; for inhibition at 8 µM: inhibitor 8 × 10^-6 M/reaction soln.; for inhibition at 10 µM: inhibitor 10^-5 M/reaction soln.; for inhibition at 1 µM: inhibitor 10^-6 M/reaction soln.; for inhibition at 0.1 µM: inhibitor 10^-7 M/reaction soln. As to the method: as §1
The determination of enzyme activity was same as in Test Example 1 except enzyme source was bovine lens.
as §2
A homogenate of bovine lens was centrifuged for ten minutes at 20,000 rpm under cooling, the supernatant was collected as an enzyme solution, and the inhibitory action of PQQ against aldose reductase was measured in the same way as in Test Example 4.
A homogenate of bovine lens was centrifuged for ten minutes at 20,000 rpm under cooling, the supernatant was collected as an enzyme solution, and the inhibitory action of PQQ·H2 against bovine lens aldose reductase was measured in the same way as in Test Example 4.
An enzyme solution was prepared from chick lens in the same manner as in Test Example 9, and the inhibitory action of PQQ·3Me against bovine lens aldose reductase was measured in the same way as in Test Example 4.

Test [3] concerns the target T3, human placental aldose reductase (Homo sapiens, UniProt P15121).
T3 construct: An enzyme solution was prepared from human placenta; from tissue; host or cells: human placenta
Description: Inhibition of human placental aldose reductase. The settings on record: for IC50: human placenta enzyme; for IC100: read-out: concentration inhibiting the activity by 100%. As to the method:
as §1
The determination of enzyme activity was same as in Test Example 1 except enzyme source was human placenta.
as §2
An enzyme solution was prepared from human placenta, and the inhibitory action of PQQ·2K against human placental aldose reductase was measured in the same way as in Test Example 4.
An enzyme solution was prepared from human placenta, and the inhibitory action of PQQ·3Me against human placental aldose reductase was measured in the same way as in Test Example 4.
An enzyme solution was prepared from human placenta, and the inhibitory action of PQQ·2Me.Et against human placental aldose reductase was measured in the same way as in Test Example 4.

Test [4] deals with chick lens aldose reductase. Description: Inhibition of chick lens aldose reductase. The following applies: for concentration inhibiting the activity by 100%: chick lens; for IC50: chick lens homogenate, read-out: concentration inhibiting the aldose reductase activity by 50%. As to the method:
The activity of aldose reductase was measured according to the method of Kinoshita et al. [Metabolism, 28, 462-469 (1979)] using a homogenate of chick lens.
as §2
An enzyme solution was prepared from chick lens in the same manner as in Test Example 4, and the inhibitory action of PQQ·H2 against aldose reductase was measured in the same way as in Test Example 4.
An enzyme solution was prepared from chick lens in the same manner as in Test Example 4, and the inhibitory action of PQQ·3Me against aldose reductase was measured in the same way as in Test Example 4.

Setting [5] is: inhibitor 2 × 10^-6 M/reaction soln., read-out: Inhibition Rate.
The mark [6] stands for this setting: inhibitor 4 × 10^-6 M/reaction soln., read-out: Inhibition Rate.
Setting [7] is: inhibitor 10^-4 M/reaction soln., read-out: Inhibition Rate.
Where [8] appears, read: inhibitor 10^-5 M/reaction soln.
[9] abbreviates: inhibitor 10^-6 M/reaction soln.
The mark [10] stands for this setting: inhibitor 10^-7 M/reaction soln.

Values joined by “and” are separate entries in the source; they are usually repeats but may differ in a detail not shown here. Equal entries are not always repeated. Structures can show the parent of a compound that is named as a salt.

Regarding `COC(=O)c1cc(C(=O)OC)c2c(n1)C(=O)C(=O)c1cc(C(=O)OC)[nH]c1-2` [PQQ.3Me, PQQ trimethyl ester], the inhibition at 2 µM in test [1] (setting [5]) is 3.3%; in test [2] (setting [5]), 22.6%. In addition, the inhibition at 4 µM in test [1] (setting [6]) turned out to be 23.5%; in test [2] (read-out: Inhibition Rate), 45.8%. For the same compound, the inhibition at 6 µM stood at 54.4% in test [1] (inhibitor 6 × 10^-6 M/reaction soln., read-out: Inhibition Rate) and 100% in test [2] (read-out: Inhibition Rate). Moreover, the inhibition at 8 µM in test [1] (inhibitor 8 × 10^-6 M/reaction soln., read-out: Inhibition Rate) worked out at 98.9%; in test [2] (read-out: Inhibition Rate), 100%. In test [1] (setting [7]), the inhibition at 100 µM was found to be 100%. Further, the inhibition at 10 µM in test [1] (read-out: Inhibition Rate) and in test [2] (read-out: Inhibition Rate) was 100% throughout. Also, the inhibition at 1 µM in test [1] (read-out: Inhibition Rate) is 0%; in test [2] (read-out: Inhibition Rate) it was 10%. Besides, the IC50 in test [1] was 5800 nM; in test [2], 4200 nM; in test [3], 390 nM; in test [4], 3000 nM. Moreover, the IC100 in test [1] turned out to be 10 µM; in test [2], 6 µM; in test [3] (human placenta), 2.5 µM. Also, the “concentrations at which effective” value in test [2] (bovine lens (Table 13)) is ≥ 10^-6 M. For the same compound, the inhibition at 0.1 µM in test [2] (read-out: Inhibition Rate) is 0%; in test [3] (inhibitor 10^-7 M/reaction soln., read-out: Inhibition Rate) it was 10%. The inhibition at 0.2 µM in test [3] (inhibitor 2 × 10^-7 M/reaction soln., read-out: Inhibition Rate) stood at 15%. The inhibition at 2.5 µM in test [3] (inhibitor 2.5 × 10^-6 M/reaction soln., read-out: Inhibition Rate) was 100%. Besides, in test [3] (inhibitor 3 × 10^-7 M/reaction soln., read-out: Inhibition Rate), the inhibition at 0.3 µM was determined as 34.4%. The inhibition at 0.4 µM in test [3] (inhibitor 4 × 10^-7 M/reaction soln., read-out: Inhibition Rate) came to 50.6%. Moreover, the inhibition at 5 µM in test [3] (inhibitor 5 × 10^-6 M/reaction soln., read-out: Inhibition Rate) worked out at 100%. Further, the inhibition at 0.5 µM in test [3] (inhibitor 5 × 10^-7 M/reaction soln., read-out: Inhibition Rate) was determined as 63.9%. Besides, the inhibition at 0.08 µM in test [3] (inhibitor 8 × 10^-8 M/reaction soln., read-out: Inhibition Rate) is 1.7%. In test [4], the “concentration inhibiting the activity by 100%” value is 8 µM. Moreover, the “Inhibition Rate” value in test [4] (inhibitor 2 × 10^-6 M/reaction soln.) came to 30.0%; in test [4] (inhibitor 4 × 10^-6 M/reaction soln.) it was 77.1%; in test [4] (inhibitor 6 × 10^-6 M/reaction soln.), 87.1%; in test [4] (inhibitor 8 × 10^-6 M/reaction soln.) it was 100%; in test [4] (setting [8]) it was 100%; in test [4] (setting [9]), 0%.

With `O=C(O)c1cc(C(=O)O)c2c(n1)c(O)c(O)c1cc(C(=O)O)[nH]c12` [PQQ.H2, PQQ reduced form], in test [1] (inhibitor 2 × 10^-5 M/reaction soln., read-out: Inhibition Rate), the inhibition at 20 µM is 100%. Also, the results for the inhibition at 10 µM in test [1] (read-out: Inhibition Rate) and in test [2] (read-out: Inhibition Rate) were 59.5% and 100%, respectively. The inhibition at 1 µM in test [1] (read-out: Inhibition Rate) came to 15.1%; in test [2] (read-out: Inhibition Rate), 0%. Also, the “Inhibition Rate” value in test [1] (inhibitor concentration not printed (first line of Table 11)) was found to be 0%; in test [4] (inhibitor 2 × 10^-5 M/reaction soln.), 68.4%; in test [4] (inhibitor 4 × 10^-5 M/reaction soln.), 92.8%; in test [4] (inhibitor 6 × 10^-5 M/reaction soln.), 100%; in test [4] (inhibitor 8 × 10^-5 M/reaction soln.) it was 100%; in test [4] (inhibitor 10^-4 M/reaction soln.), 100%. The “Inhibition Rate” value in test [4] (setting [8]) was 62.1%; in test [4] (setting [9]), 31.8%; in test [4] (setting [10]), 0%. Also, the IC50 in test [1] was determined as 8500 nM; in test [2], 5000 nM; in test [4], 6000 nM. Further, the IC100 in test [1] was found to be 20 µM; in test [2], 8 µM. Besides, the inhibition at 4 µM in test [2] (read-out: Inhibition Rate) was found to be 27.8%. In test [2] (read-out: Inhibition Rate), the inhibition at 6 µM is 89.9%. Further, the inhibition at 8 µM in test [2] (read-out: Inhibition Rate) was 100%. Further, the inhibition at 100 µM in test [2] (setting [7]) was 100%. Further, the inhibition at 0.1 µM in test [2] (read-out: Inhibition Rate) was determined as 0%. In addition, the “concentration inhibiting the activity by 100%” value in test [4] came out at 60 µM.

With `O=C(O)c1cc(C(=O)O)c2c(n1)C(=O)C(=O)c1cc(C(=O)O)[nH]c1-2` [PQQ.2K, PQQ dipotassium salt], the IC50 was 2000 nM in test [1]; 1920 nM and 1900 nM in test [3]. In addition, in test [3] (human placenta), the IC100 is 4 µM. The inhibition at 2 µM in test [3] (setting [5]) came to 51.4%. For the same compound, the inhibition at 3 µM in test [3] (inhibitor 3 × 10^-6 M/reaction soln., read-out: Inhibition Rate) amounted to 83.3%. The inhibition at 4 µM in test [3] (setting [6]) was determined as 100%. Besides, the inhibition at 0.9 µM in test [3] (inhibitor 9 × 10^-7 M/reaction soln., read-out: Inhibition Rate) stood at 8.3%. Moreover, the inhibition at 1 µM in test [3] (inhibitor 10^-6 M/reaction soln., read-out: Inhibition Rate) is 26.9%.

For PQQ dimethyl ethyl ester [PQQ.2Me.Et], the “concentration inhibiting the activity by 100%” value in test [3] (human placenta) was found to be 2.5 µM. In test [3], the IC50 stood at 420 nM. The “Inhibition Rate” value in test [3] (inhibitor 1.25 × 10^-6 M/reaction soln.) worked out at 97.1%; in test [3] (inhibitor 2 × 10^-7 M/reaction soln.), 17.6%; in test [3] (inhibitor 2.5 × 10^-6 M/reaction soln.), 100%; in test [3] (inhibitor 3 × 10^-7 M/reaction soln.) it was 29.3%; in test [3] (inhibitor 5 × 10^-7 M/reaction soln.) it was 59.0%; in test [3] (setting [9]) it was 91.2%. The “Inhibition Rate” value in test [3] (setting [10]) came to 0%.
